Here are results for 15 compounds from patent publication US20180000085A1, “USE OF PICOLINAMIDE COMPOUNDS WITH FUNGICIDAL ACTIVITY” (DOW AGROSCIENCES LLC, priority 2014, published 2018).

SMILES strings stand for the structures.

Common to all, as to type: in vivo
The subject of one assay is Phakopsora pachyrhizi. In words: Asian soybean rust (PHAKPA) disease control. The arrangement: key: A: > 80; B: ≤ 80; C: Not Tested; D: No Activity Observed in the Reported Assay. As to conditions: 25 ppm; for PHAKPA disease control, 1DP: 1 Day Protectant; for PHAKPA disease control, 3DC: 3 Day Curative.
The test system of a further assay is Puccinia triticina. In words: Wheat brown rust (PUCCRT) disease control on wheat seedlings. The conditions noted are these: low volume application, 125.1 g/H; for PUCCRT 1DP disease control rating, LV activity at 125.1 g/H: 1 day protectant; for PUCCRT 3DC disease control rating, LV activity at 125.1 g/H: 3 day curative; for PUCCRT 1DP, LV activity at 125.1 g/H (% Control rating): 1 Day Protectant; for PUCCRT 3DC, LV activity at 125.1 g/H (% Control rating): 3 Day Curative.

For the next assay, the system named is Zymoseptoria tritici. Description: Leaf blotch of wheat (SEPTTR) disease control on wheat seedlings. The conditions noted are these: low volume application, 125.1 g/H; for SEPTTR 1DP disease control rating, LV activity at 125.1 g/H: 1 day protectant; for SEPTTR 3DC disease control rating, LV activity at 125.1 g/H: 3 day curative; for SEPTTR 1DP, LV activity at 125.1 g/H (% Control rating): 1 Day Protectant; for SEPTTR 3DC, LV activity at 125.1 g/H (% Control rating): 3 Day Curative.

Turning to `CCCO[C@H](c1ccccc1)[C@H](C)OC(=O)[C@H](C)NC(=O)c1nccc(OC)c1OC(C)=O` [Cmpd 884], in the assay with Phakopsora pachyrhizi, the “PHAKPA disease control, 1DP” value is reported as “A (> 80)” and the “PHAKPA disease control, 3DC” value is “D”. In addition, in the assay on Puccinia triticina, the “PUCCRT 1DP disease control rating, LV activity at 125.1 g/H” value (from here on “PUCCRT 1DP disease control rating”) was “A (> 80)” and the “PUCCRT 3DC disease control rating, LV activity at 125.1 g/H” value (“PUCCRT 3DC disease control rating” for short) is on record as “A (> 80)”. In the assay on Zymoseptoria tritici, the “SEPTTR 1DP disease control rating, LV activity at 125.1 g/H” value (“SEPTTR 1DP disease control rating” for short) is “B (≤ 80)” and the “SEPTTR 3DC disease control rating, LV activity at 125.1 g/H” value (“SEPTTR 3DC disease control rating” for short) is “A (> 80)”.
`CCC(CC)[C@@H](Oc1ccc(Cl)cc1)[C@H](C)OC(=O)[C@H](C)NC(=O)c1nccc(OC)c1OCOC(C)=O` [Cmpd 589]: in the assay with Phakopsora pachyrhizi, the “PHAKPA disease control, 1DP” value is “A (> 80)” and the “PHAKPA disease control, 3DC” value is listed as “B (≤ 80)”. In addition, in the assay on Puccinia triticina, the “PUCCRT 1DP, LV activity at 125.1 g/H (% Control rating)” value (“PUCCRT 1DP … (% Control rating)” for short) was “A (> 80)” and the “PUCCRT 3DC, LV activity at 125.1 g/H (% Control rating)” value (from here on “PUCCRT 3DC … (% Control rating)”) is “A (> 80)”. In the assay on Zymoseptoria tritici, the “SEPTTR 1DP, LV activity at 125.1 g/H (% Control rating)” value (from here on “SEPTTR 1DP … (% Control rating)”) is on record as “A (> 80)” and the “SEPTTR 3DC, LV activity at 125.1 g/H (% Control rating)” value (from here on “SEPTTR 3DC … (% Control rating)”) was “A (> 80)”.
With `COc1ccnc(C(=O)NC(C)C(=O)OC(C)(C)C(Oc2ccccc2)C(C)C)c1OCOC(C)=O` (mixture of isomers) [Cmpd 904], in the assay on Phakopsora pachyrhizi, the “PHAKPA disease control, 1DP” value was “A (> 80)” and the “PHAKPA disease control, 3DC” value was “B (≤ 80)”. In the assay on Puccinia triticina, the “PUCCRT 1DP disease control rating” value is given as “A (> 80)” and the “PUCCRT 3DC disease control rating” value is listed as “A (> 80)”. In the assay on Zymoseptoria tritici, the “SEPTTR 1DP disease control rating” value is given as “B (≤ 80)” and the “SEPTTR 3DC disease control rating” value is on record as “A (> 80)”.
`CCC[C@@H](Oc1ccccc1)[C@H](C)OC(=O)[C@H](C)NC(=O)c1nccc(OC)c1OC(C)=O` [Cmpd 696]: in the assay on Phakopsora pachyrhizi, the “PHAKPA disease control, 1DP” value is on record as “A (> 80)” and the “PHAKPA disease control, 3DC” value is “A (> 80)”. In the assay on Puccinia triticina, the “PUCCRT 1DP disease control rating” value was “A (> 80)” and the “PUCCRT 3DC disease control rating” value is “A (> 80)”. Moreover, in the assay on Zymoseptoria tritici, the “SEPTTR 1DP disease control rating” value is recorded as “A (> 80)” and the “SEPTTR 3DC disease control rating” value is listed as “A (> 80)”.
As for `COc1ccnc(C(=O)N[C@@H](C)C(=O)O[C@@H](C)[C@H](Oc2ccccc2)c2ccccc2)c1OC(C)=O` [Cmpd 501], in the assay with Phakopsora pachyrhizi, the “PHAKPA disease control, 1DP” value is reported as “B (≤ 80)” and the “PHAKPA disease control, 3DC” value is given as “B (≤ 80)”. For the same compound, in the assay with Puccinia triticina, the “PUCCRT 1DP … (% Control rating)” value is given as “A (> 80)” and the “PUCCRT 3DC … (% Control rating)” value is recorded as “A (> 80)”. Also, in the assay with Zymoseptoria tritici, the “SEPTTR 1DP … (% Control rating)” value was “A (> 80)” and the “SEPTTR 3DC … (% Control rating)” value was “A (> 80)”.
Regarding `COc1ccnc(C(=O)N[C@@H](C)C(=O)O[C@@H](C)[C@H](Oc2ccc(Cl)cc2)C(C)C)c1OCOC(C)=O` [Cmpd 563], in the assay with Phakopsora pachyrhizi, the “PHAKPA disease control, 1DP” value is “A (> 80)” and the “PHAKPA disease control, 3DC” value is “B (≤ 80)”. For the same compound, in the assay with Puccinia triticina, the “PUCCRT 1DP … (% Control rating)” value is recorded as “A (> 80)” and the “PUCCRT 3DC … (% Control rating)” value is recorded as “A (> 80)”. In the assay with Zymoseptoria tritici, the “SEPTTR 1DP … (% Control rating)” value is “B (≤ 80)” and the “SEPTTR 3DC … (% Control rating)” value is listed as “A (> 80)”.
On to `COc1ccnc(C(=O)N[C@@H](C)C(=O)O[C@@H](C)[C@H](Oc2cc(F)ccc2F)C(C)C)c1OCOC(C)=O` [Cmpd 616], for which, in the assay on Phakopsora pachyrhizi, the “PHAKPA disease control, 1DP” value is “A (> 80)” and the “PHAKPA disease control, 3DC” value is reported as “A (> 80)”. Moreover, in the assay with Puccinia triticina, the “PUCCRT 1DP … (% Control rating)” value is on record as “A (> 80)” and the “PUCCRT 3DC … (% Control rating)” value is “A (> 80)”. In the assay with Zymoseptoria tritici, the “SEPTTR 1DP … (% Control rating)” value was “B (≤ 80)” and the “SEPTTR 3DC … (% Control rating)” value is listed as “A (> 80)”.
As to `COc1cccc(OC(C2CCCC2)C(C)OC(=O)C(C)NC(=O)c2nccc(OC)c2OCOC(C)=O)c1` (stereo not drawn) [Cmpd 917], in the assay with Phakopsora pachyrhizi, the “PHAKPA disease control, 1DP” value was “B (≤ 80)” and the “PHAKPA disease control, 3DC” value is listed as “B (≤ 80)”. Moreover, in the assay with Puccinia triticina, the “PUCCRT 1DP disease control rating” value is “A (> 80)” and the “PUCCRT 3DC disease control rating” value is reported as “A (> 80)”. Further, in the assay on Zymoseptoria tritici, the “SEPTTR 1DP disease control rating” value was “B (≤ 80)” and the “SEPTTR 3DC disease control rating” value is “A (> 80)”.
As for `COc1ccnc(C(=O)N[C@@H](C)C(=O)O[C@@H](C)[C@H](Oc2cccc(Cl)c2)C(C)C)c1OCOC(C)=O` [Cmpd 561], in the assay with Phakopsora pachyrhizi, the “PHAKPA disease control, 1DP” value is given as “A (> 80)” and the “PHAKPA disease control, 3DC” value is on record as “A (> 80)”. Moreover, in the assay on Puccinia triticina, the “PUCCRT 1DP … (% Control rating)” value was “A (> 80)” and the “PUCCRT 3DC … (% Control rating)” value is reported as “A (> 80)”. In the assay on Zymoseptoria tritici, the “SEPTTR 1DP … (% Control rating)” value is reported as “A (> 80)” and the “SEPTTR 3DC … (% Control rating)” value was “A (> 80)”.
Turning to `COc1ccnc(C(=O)N[C@@H](C)C(=O)O[C@@H](C)[C@H](Oc2ccccc2Cl)c2ccccc2)c1OCOC(C)=O` [Cmpd 639], in the assay with Phakopsora pachyrhizi, the “PHAKPA disease control, 1DP” value is recorded as “A (> 80)” and the “PHAKPA disease control, 3DC” value was “B (≤ 80)”. For the same compound, in the assay on Puccinia triticina, the “PUCCRT 1DP … (% Control rating)” value is given as “A (> 80)” and the “PUCCRT 3DC … (% Control rating)” value is “A (> 80)”. Moreover, in the assay with Zymoseptoria tritici, the “SEPTTR 1DP … (% Control rating)” value was “B (≤ 80)” and the “SEPTTR 3DC … (% Control rating)” value is given as “A (> 80)”.
As to `COc1ccnc(C(=O)N[C@@H](C)C(=O)O[C@@H](C)[C@H](Oc2ccc(C)cc2)C2CCCC2)c1OC(C)=O` [Cmpd 923], in the assay with Phakopsora pachyrhizi, the “PHAKPA disease control, 1DP” value was “A (> 80)” and the “PHAKPA disease control, 3DC” value was “B (≤ 80)”. For the same compound, in the assay with Puccinia triticina, the “PUCCRT 1DP disease control rating” value is “A (> 80)” and the “PUCCRT 3DC disease control rating” value was “A (> 80)”. Further, in the assay on Zymoseptoria tritici, the “SEPTTR 1DP disease control rating” value is reported as “B (≤ 80)” and the “SEPTTR 3DC disease control rating” value is given as “B (≤ 80)”.
Regarding `CCCOC[C@@H](Oc1ccccc1)[C@H](C)OC(=O)[C@H](C)NC(=O)c1nccc(OC)c1OC(C)=O` [Cmpd 474], in the assay with Phakopsora pachyrhizi, the “PHAKPA disease control, 1DP” value is “B (≤ 80)” and the “PHAKPA disease control, 3DC” value is reported as “B (≤ 80)”. Further, in the assay on Puccinia triticina, the “PUCCRT 1DP … (% Control rating)” value is listed as “A (> 80)” and the “PUCCRT 3DC … (% Control rating)” value is given as “A (> 80)”. Also, in the assay with Zymoseptoria tritici, the “SEPTTR 1DP … (% Control rating)” value is recorded as “B (≤ 80)” and the “SEPTTR 3DC … (% Control rating)” value is recorded as “A (> 80)”.
With `CCC(CC)[C@@H](Oc1cccc(F)c1)[C@H](C)OC(=O)[C@H](C)NC(=O)c1nccc(OC)c1OC(C)=O` [Cmpd 597], in the assay with Phakopsora pachyrhizi, the “PHAKPA disease control, 1DP” value is listed as “A (> 80)” and the “PHAKPA disease control, 3DC” value was “B (≤ 80)”. For the same compound, in the assay on Puccinia triticina, the “PUCCRT 1DP … (% Control rating)” value is listed as “A (> 80)” and the “PUCCRT 3DC … (% Control rating)” value was “A (> 80)”. Besides, in the assay on Zymoseptoria tritici, the “SEPTTR 1DP … (% Control rating)” value is “A (> 80)” and the “SEPTTR 3DC … (% Control rating)” value is “A (> 80)”.
On to `COc1ccnc(C(=O)N[C@@H](C)C(=O)O[C@@H](C)[C@H](Oc2cccc(Cl)c2)C2CCCC2)c1OCOC(C)=O` [Cmpd 911, (S)-(1R,2S)-1-(3-chlorophenoxy)-1-cyclopentylpropan-2-yl-2-(3-(acetoxymethoxy)-4-methoxypicolinamido)propanoate], for which, in the assay with Phakopsora pachyrhizi, the “PHAKPA disease control, 1DP” value is “A (> 80)” and the “PHAKPA disease control, 3DC” value was “B (≤ 80)”. Also, in the assay with Puccinia triticina, the “PUCCRT 1DP disease control rating” value is “A (> 80)” and the “PUCCRT 3DC disease control rating” value is on record as “A (> 80)”. Besides, in the assay on Zymoseptoria tritici, the “SEPTTR 1DP disease control rating” value is “A (> 80)” and the “SEPTTR 3DC disease control rating” value is “A (> 80)”.
As to `CCC(CC)[C@@H](Oc1ccc(Cl)cc1)[C@H](C)OC(=O)[C@H](C)NC(=O)c1nccc(OC)c1OC(C)=O` [Cmpd 600], in the assay with Phakopsora pachyrhizi, the “PHAKPA disease control, 1DP” value was “B (≤ 80)” and the “PHAKPA disease control, 3DC” value was “B (≤ 80)”. Besides, in the assay on Puccinia triticina, the “PUCCRT 1DP … (% Control rating)” value is given as “A (> 80)” and the “PUCCRT 3DC … (% Control rating)” value is “A (> 80)”. Also, in the assay on Zymoseptoria tritici, the “SEPTTR 1DP … (% Control rating)” value is on record as “A (> 80)” and the “SEPTTR 3DC … (% Control rating)” value was “A (> 80)”.
